In US20020028938A1, “Prostaglandin endoperoxide H synthase biosynthesis inhibitors” (priority 1997, published 2002):
Values joined by “and” are separate entries in the source; they are usually repeats but may differ in a detail not shown here. Equal values may be shown once.

Assays:
[1] = target: T1, recombinant human Cox-1 (r-hu Cox1) (Homo sapiens, UniProt P23219); test: Recombinant human PGHS-1 enzyme assay (RHUCX1); type: biochemical
T1 construct: made in house; host or cells: baculovirus/Sf9 insect cells (microsomes)
Outline: (§1)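 IC50 values come from linear regression of percent inhibition, itself calculated against the mean of untreated controls. The underlying signal is PGE2, determined by EIA after a brief room-temperature reaction (2.5 minutes) terminated with acid and then base-neutralized.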

[2] = system: carrageenan induced paw edema; test: Carrageenan induced paw edema (CPE) in rats; type: in vivo; conditions: rat; for inhibition in vivo at 10 mg/kg / CPE % Inhib. @ 10 mpk: 10 mpk oral, 3 hours after carrageenan; for inhibition in vivo at 10 mg/kg: read-out: CPE % Inhib. @ 10 mpk
Method: (§2) For oral administration, test compounds were suspended on the day of use in 100% polyethyleneglycol (PEG 400) with a motorized homogenizer equipped with a Teflon-coated pestle (TRI-R Instrument, Jamaica, N.Y.).
(§3) To compare the mean responses of the treatment groups, analysis of variance was applied. Percent inhibition values were determined by comparing the individual treatment mean values to the mean of the control group. Linear regression was used to estimate IC50's/ED50's in appropriate assays.
Hingpaw edema was […] in male rats as described by Winter et al., Proc. Soc. Exp. Biol. Med., 1962, 111, 544. Briefly, male Sprague-Dawley rats weighing between 170 and 190 g were administered test compounds orally 1 hour prior to the subplantar injection of 0.1 ml of 1% sodium carrageenan (lambda carrageenan, Sigma Chemical Co., St Louis, Mo.) into the right hindpaw. Right paw volumes (ml) were measured immediately following injection of carrageenan for baseline volume measurements using a Buxco plethysmograph (Buxco Electronics, Inc., Troy, N.Y.). Three hours after the injection of carrageenan, right paws were remeasured and paw edema calculated for each rat by subtracting the zero time reading from the 3 hour reading. Data are reported as mean percent inhibition +/−SEM. Statistical significance of results was analyzed by Dunnetts multiple comparison test where p<0.05 was considered statistically significant.

[3] = target: T2, recombinant human Cox-2 (r-hu Cox-2) (Homo sapiens, UniProt P35354); test: Recombinant human PGHS-2 enzyme assay (RHUCX2); type: biochemical; conditions: for IC50: read-out: RHUCX2 IC50 (parenthetical value)
T2 construct: made in house; host or cells: baculovirus/Sf9 insect cells (microsomes)
T2 sequence (P35354 18-604): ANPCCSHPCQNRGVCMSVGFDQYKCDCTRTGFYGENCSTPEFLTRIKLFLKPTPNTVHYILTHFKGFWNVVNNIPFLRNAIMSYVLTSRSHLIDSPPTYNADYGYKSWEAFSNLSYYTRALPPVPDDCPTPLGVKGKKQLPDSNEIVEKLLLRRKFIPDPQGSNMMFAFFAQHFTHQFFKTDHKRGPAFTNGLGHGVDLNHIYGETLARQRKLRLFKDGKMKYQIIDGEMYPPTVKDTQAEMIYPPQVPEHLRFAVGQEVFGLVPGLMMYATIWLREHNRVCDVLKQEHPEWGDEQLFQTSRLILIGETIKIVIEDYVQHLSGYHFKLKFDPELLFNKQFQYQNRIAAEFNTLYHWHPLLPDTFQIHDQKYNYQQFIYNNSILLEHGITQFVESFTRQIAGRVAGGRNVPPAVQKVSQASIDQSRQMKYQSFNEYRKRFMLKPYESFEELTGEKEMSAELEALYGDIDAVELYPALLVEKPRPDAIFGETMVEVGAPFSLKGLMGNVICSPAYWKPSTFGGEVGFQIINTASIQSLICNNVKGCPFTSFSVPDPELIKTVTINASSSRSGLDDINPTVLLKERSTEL
Outline: as §1

[4] = system: prostaglandin biosynthesis in vivo (pleural lavage eicosanoids); test: Rat carrageenan pleural inflammation (CIP) model; conditions: 10 mpk oral; for inhibition in vivo at 10 mg/kg: 4 h, read-out: CIP % Inhib. @ 10 mpk
Method: as §2, §3
Pleural inflammation was induced in male adrenalectomized Sprague-Dawley rats following the method of Vinegar et al., Fed. Proc. 1976, 35, 2447-2456. Animals were orally dosed with experimental compounds, 30 minutes prior to the intrapleural injection of 2% lambda carrageenan (Sigma Chemical Co., St. Louis Mo.). Four hours later the animals were euthanized and the pleural cavities lavaged with ice cold saline. The lavage fluid was then added to two volumes of ice cold methanol (final methanol concentration 66%) to lyse cells and precipitate protein. Eicosanoids were determined by EIA as described above.

[5] = system: air pouch prostaglandin biosynthesis (Cox-2); test: Carrageenan induced air pouch prostaglandin biosynthesis model (CAP); type: in vivo, rat; conditions: 3 mpk, rat; for inhibition in vivo at 3 mg/kg: 4 h, read-out: CAP % Inhib. @ 3 mpk
Outline: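 Male Sprague Dawley rats with dorsal air pouches (20 mL air day 0, 10 mL day 3) received 0.2% lambda carrageenan in saline into the pouch on day 7. Compounds dosed at 0.1 to 10 mg/kg 30 min before carrageenan; pouch lavaged 4 h later, prostaglandins measured by EIA. Percent inhibition versus control mean; ED50 by linear regression.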

[6] = target: T3, human amnionic whole cell cyclooxygenase-2 (WISH cells) (Homo sapiens, UniProt P35354); test: IL-1β induced PGE2 production in WISH cells; type: cell-based; conditions: read-out: Wish IC50 (parenthetical value)
T3 construct: endogenous in cells; host or cells: human amnionic WISH cells, induced with IL-1beta
T3 sequence (P35354 18-604): T2 sequence (P35354 18-604)
Outline: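 PGE2 was quantified by enzyme immunoassay (optical density read) against standards made up in the matching medium. WISH cells at 80% confluence, washed and placed in serum-free Neuman-Tytell medium, received 5 ng/ml IL-1β plus test compound or DMSO vehicle (0.01% v/v).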

[7] = target: T4, Human Whole Platelet Cyclooxygenase-1 (Homo sapiens, UniProt P23219); test: Human Whole Platelet Cyclooxygenase-1 assay (HWPX); type: cell-based; conditions: for IC50: read-out: HWPX IC50 (parenthetical value)
T4 construct: from tissue; host or cells: human blood: isolated platelets (A4) or heparinised whole blood (A9)
Outline: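 Thromboxane production was measured with a commercial kit after stimulation of washed human platelets (ACD-anticoagulated volunteer blood) by 8.8 μM final A23187 for 10 min. Test compounds were added 10 min before stimulus; cold 6 mM EDTA terminated the reaction.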

[8] = 100 μM, read-out: RHUCX1 % Inh. at Dose
[9] = read-out: RHUCX2 % Inh. at Dose
[10] = read-out: RHUCX1 % Inh. at Dose
[11] = read-out: HWPX % Inhib. at Dose

T4 sequence (P23219 24-599): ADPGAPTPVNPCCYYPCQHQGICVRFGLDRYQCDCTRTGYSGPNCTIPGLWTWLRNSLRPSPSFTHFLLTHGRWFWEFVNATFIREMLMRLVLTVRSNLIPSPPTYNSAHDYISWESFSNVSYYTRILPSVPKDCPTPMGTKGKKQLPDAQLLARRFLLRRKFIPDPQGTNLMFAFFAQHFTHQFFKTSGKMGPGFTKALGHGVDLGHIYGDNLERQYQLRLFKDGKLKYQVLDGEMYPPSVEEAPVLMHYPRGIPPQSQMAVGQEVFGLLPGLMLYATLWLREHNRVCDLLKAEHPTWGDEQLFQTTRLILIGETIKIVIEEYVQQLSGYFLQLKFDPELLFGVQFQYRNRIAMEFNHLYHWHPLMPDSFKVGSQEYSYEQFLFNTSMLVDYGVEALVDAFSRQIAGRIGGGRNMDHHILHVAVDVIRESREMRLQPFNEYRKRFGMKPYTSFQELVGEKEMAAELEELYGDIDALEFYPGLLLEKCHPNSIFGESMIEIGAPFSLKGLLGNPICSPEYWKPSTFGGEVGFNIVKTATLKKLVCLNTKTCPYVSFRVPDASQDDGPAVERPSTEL
T1 sequence (P23219 24-599): as above

Compound | inhibition at 100 µM [1, 8] [%] | inhibition in vivo at 10 mg/kg [2] [%] | melting point | IC50 [3] [nM] | inhibition in vivo at 10 mg/kg [4] [%] | inhibition in vivo at 3 mg/kg [5] [%] | IC50 [6] [nM] | inhibition at 1 µM [3, 9] [%] | other results
CS(=O)(=O)c1ccc(-c2cnn(CC(F)(F)F)c(=O)c2-c2ccc(Cl)cc2)cc1 [Example 58, 2-(2,2,2-Trifluoroethyl)-4-(4-chlorophenyl)-5-[4-(methylsulfonyl)phenyl]-3(2H)-pyridazinone] | 0 | 14 | 55 to 57 °C | 950 | 42 | 67 |  |  | 
CS(=O)(=O)c1ccc(-c2cnn(-c3ccc(F)cc3)c(=O)c2-c2ccc(F)cc2)cc1 [Example 62, 2,4-Bis(4-fluorophenyl)-5-[4-(methylsulfonyl)phenyl]-3(2H)-pyridazinone] | 6 | 21 | 168 to 169 °C | 624 | 57 |  |  |  | 
CCCc1ccc(-c2c(-c3ccc(S(C)(=O)=O)cc3)cnn(CC(F)(F)F)c2=O)cc1 [Example 66, 2-(2,2,2-Trifluoroethyl)-4-(4-n-proylphenl)-5-[4-(methylsulfonyl)phenyl]-3(2H)-pyridazinone] |  |  |  |  |  |  |  |  | CPE % Inhib. @ 10 mpk [2]: 7%; CIP % Inhib. @ 10 mpk [4]: 59%; CAP % Inhib. @ 3 mpk [5]: 0%
NS(=O)(=O)c1ccc(-c2cnn(CC(F)(F)F)c(=O)c2-c2ccc(F)cc2)cc1 [Example 68, 2-(2,2,2-Trifluoroethyl)-4-(4-fluorophenyl)-5-[4-(aminosulfonyl)phenyl]-3(2H)-pyridazinone] | 32 | 40.3 | 193 to 195 °C | 297 | 64 |  |  |  | 
NS(=O)(=O)c1ccc(-c2cnn(CC(F)(F)F)c(=O)c2-c2ccc(Cl)cc2)cc1 [Example 69, 2-(2,2,2-Trifluoroethyl)-4-(4-chlorophenyl)-5-[4-(aminosulfonyl)phenyl]-3(2H)-pyridazinone] | 2 | 45.5 | 154 to 156 °C |  | 61 | 87 | 20 | 88 | IC50 [7]: 1140 nM; CPE ED30 ([2]; oral): ED30 = 5.4; inhibition at 0.01 µM ([3]; 0.01 μM, read-out: RHUCX2 % Inh. at Dose): 30%; inhibition at 0.1 µM [3, 9]: 29%
C[S+]([O-])c1ccc(-c2cnn(CC(F)(F)F)c(=O)c2-c2ccc(Cl)cc2)cc1 (centres unmarked) [Example 77] | 35 | 21 | 154 to 155 °C |  | 51 |  | 126 | 39 | IC50 [7]: 8800 nM; inhibition at 10 µM ([3]; 10 μM, read-out: RHUCX2 % Inh. at Dose): 82%
NS(=O)(=O)c1ccc(-c2cnn(CC(F)(F)F)c(=O)c2-c2ccc(Cl)c(F)c2)cc1 [Example 80, 2-(2,2,2-Trifluoroethyl)-4-(4-chloro-3-fluorophenyl)-5-[4-(aminosulfonyl)phenyl]-3(2H)-pyridazinone] |  | 28.5 | 214 to 215 °C | 64 | 60 | 91 |  |  | inhibition at 1 µM ([1]; 1 μM, read-out: RHUCX1 % Inh. at Dose): 37%; inhibition at 10 µM [1, 10]: 41%
CS(=O)(=O)c1ccc(-c2cnn(C3CCCCC3)c(=O)c2-c2ccc(F)cc2)cc1 [Example 120, 2-Cyclohexyl-4-(4-fluorophenyl)-5-[4-(methylsulfonyl)phenyl]-3(2H)-pyridazinone] | 15 | 11 | 169 to 171 °C |  | 5 |  | 25 | 97 | inhibition at 1 µM [7, 11]: 58%; inhibition at 3 µM ([7]; 3 μM, read-out: HWPX % Inhib. at Dose): 74%; inhibition at 0.1 µM [3, 9]: 45%
CS(=O)(=O)c1ccc(-c2cnn(C3CCCC3)c(=O)c2-c2ccc(F)cc2)cc1 [Example 121, 2-Cyclopentyl-4-(4-fluorphenyl)-5-[4-(methylsulfonyl)phenyl]-3(2H)-pyridazinone] |  |  |  | 5 |  |  | 41 |  | RHUCX1 % Inh. at Dose (μM) ([1]; 100 μM): 0 @ 100%; CPE % Inhib. @ 10 mpk [2]: 8%; CIP % Inhib. @ 10 mpk [4]: 19%
CS(=O)(=O)c1ccc(-c2cnn(-c3ccc(Cl)cc3)c(=O)c2-c2ccc(F)cc2)cc1 [Example 160, 2-(4-Chlorophenyl)-4-(4-fluorophenyl)-5-[4-(methylsulfonyl)phenyl]-3(2H)-pyridazinone] |  | 35 | 214 to 216 °C |  | 56 |  | 30 |  | IC50 [7]: 7200 nM
Cc1ccc(-n2ncc(-c3ccc(S(C)(=O)=O)cc3)c(-c3ccc(F)cc3)c2=O)s1 [Example 168] | 0 | 6 | 219 to 224 °C |  | 0 |  | 9 | 85 | inhibition at 1 µM [7, 11]: 47%; inhibition at 0.1 µM [3, 9]: 93%
CS(=O)(=O)c1ccc(-c2cnn(-c3ccc(F)c(F)c3)c(=O)c2-c2ccc(F)cc2)cc1 [Example 182, 2-(3,4-Difluorophenyl)-4-(4-fluorophenyl)-5-[4-(methylsulfonyl)phenyl]-3(2H)-pyridazinone] |  | 27 | 109 to 110 °C | 70 | 59 | 98 |  |  | IC50 ([1]; read-out: RHUCX1 IC50 (parenthetical value)): 5010 nM
CS(=O)(=O)c1ccc(-c2cnn(-c3ccccc3F)c(=O)c2-c2ccc(F)cc2)cc1 [Example 185, 2-(2-Fluorophenyl)-4-(4-fluorophenyl)-5-[4-(methlsulfonyl)phenyl]-3(2H)-pyridazinone] |  |  |  |  |  |  |  |  | CPE % Inhib. @ 10 mpk [2]: 20%; CIP % Inhib. @ 10 mpk [4]: 59%; CAP % Inhib. @ 3 mpk [5]: 53%
NS(=O)(=O)c1ccc(-c2cnn(Cc3ccccc3)c(=O)c2-c2ccc(F)cc2)cc1 [Example 384, 2-Benzyl-4-(4-fluorophenyl)-5-[4-(aminosulfonyl)phenyl]-3(2H)-pyridazinone] | 82 | 15 | 185 to 189 °C and 188 to 191 °C |  | 51 | 51 |  | 99 | inhibition at 10 µM [1, 10]: 49%; inhibition at 0.1 µM [3, 9]: 78%
